Patent US20240246967A1, “AXL COMPOUNDS” (ARCUS BIOSCIENCES, INC., priority 2021, published 2024)

Biological target: T1, human TYRO3 (Homo sapiens, UniProt Q06418)
T1 construct: purchased Invitrogen
T1 sequence (Q06418 41-890): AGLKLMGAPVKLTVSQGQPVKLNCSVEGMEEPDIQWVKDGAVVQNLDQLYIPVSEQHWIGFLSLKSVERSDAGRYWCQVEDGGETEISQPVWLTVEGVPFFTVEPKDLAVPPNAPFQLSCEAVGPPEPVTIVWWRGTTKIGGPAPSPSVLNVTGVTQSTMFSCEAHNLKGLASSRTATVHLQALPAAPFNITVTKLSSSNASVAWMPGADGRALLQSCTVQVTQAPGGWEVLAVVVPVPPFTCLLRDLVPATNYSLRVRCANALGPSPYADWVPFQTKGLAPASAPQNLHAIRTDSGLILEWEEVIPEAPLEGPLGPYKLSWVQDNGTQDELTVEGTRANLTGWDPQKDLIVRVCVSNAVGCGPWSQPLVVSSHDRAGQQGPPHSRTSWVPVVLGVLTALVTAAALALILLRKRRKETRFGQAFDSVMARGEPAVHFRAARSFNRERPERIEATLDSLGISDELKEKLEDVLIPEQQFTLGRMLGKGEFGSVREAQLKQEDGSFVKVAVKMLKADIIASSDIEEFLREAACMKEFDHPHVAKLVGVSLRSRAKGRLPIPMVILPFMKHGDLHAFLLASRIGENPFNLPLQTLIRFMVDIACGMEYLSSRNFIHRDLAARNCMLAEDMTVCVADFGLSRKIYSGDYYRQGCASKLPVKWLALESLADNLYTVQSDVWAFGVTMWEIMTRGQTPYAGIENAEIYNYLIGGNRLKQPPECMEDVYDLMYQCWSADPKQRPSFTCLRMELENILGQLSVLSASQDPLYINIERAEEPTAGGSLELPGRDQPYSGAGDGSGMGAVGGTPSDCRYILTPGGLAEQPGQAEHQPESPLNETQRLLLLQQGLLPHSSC
Experiment: HTRF KinEASE-TK biochemical potency assay, TYRO3
Conditions: 1 nM TYRO3, 700 μM ATP, 800 nM TK Substrate-biotin
Description: Purified recombinant human AXL, TYRO3 and MER proteins were purchased from Invitrogen™. 10 nM AXL, 2 nM TYRO3 or MER were incubated with varying concentrations of compounds in 50 mM HEPES, pH 7.4, 10 mM MgCl2, 0.01% BSA, 1 mM DTT and 2% DMSO in a total volume of 20 μl in a 384-well microplate (Corning™ #3640) at RT for 1 h. The AXL, TYRO3 and MER enzymatic reaction was initiated by transferring 10 μl of enzyme and compound mixture into 10 μl of 1.6 μM TK Substrate-biotin (HTRF® KinEASE-TK kit, Cisbio) and 1400 μM ATP pre-incubated in 50 mM HEPES, pH 7.4, 10 mM MgCl2, 0.01% BSA, 1 mM DTT in a 384-well microplate (Corning™ #3640) at RT, giving the final reaction conditions: 5 nM AXL, 1 nM TYRO3 or MER, 800 nM TK Substrate-biotin and 700 μM ATP in 50 mM HEPES, pH 7.4, 10 mM MgCl2, 0.01% BSA, 1 mM DTT and 1% DMSO with varying concentrations of compounds. Following 2 h incubation at RT, the AXL, TYRO3 and MER enzymatic reaction was stopped by transfer of 10 μl of reaction into 10 μl of detection mix (400 nM Streptavidin-XL665, 200-fold dilution TK Antibody-Cryptate and detection buffer, HTRF® KinEASE-TK kit, Cisbio) in a white 384-well microplate (Perkin Elmer, OptiPlate 384). After 1 h incubation at RT, the plate was put into a plate reader (Evision) to read at 665/620 nm (acceptor/donor) for HTRF. The value of the DMSO blank (MIN inhibition=100% activity) was used as a negative control. The positive control was established by adding 5 μl of enzyme and DMSO mixture into 10 μl of detection mix followed by addition of 5 μl of TK Substrate-biotin and ATP mixture (MAX inhibition=0% activity). To calculate the percent activity, Equation 1 was used. Ratio 665/620 is the value at a given compound concentration: […]

Row | Structure (SMILES) | IC50
1 | C[C@H]1CCCN1C1CCc2ccc(-c3cnc4[nH]nc(-c5ccc(S(C)(=O)=O)cc5)c4c3)cc2CC1 (stereo partly drawn) [Example 36, 5-(7-((S)-2-Methylpyrrolidin-1-yl)-6,7,8,9-tetrahydro-5H-benzo[7]annulen-2-yl)-3-(4-(methylsulfonyl)phenyl)-1H-pyrazolo[3,4-b]pyridine] | < 100 nM
2 | C[C@@H]1CCCN1C1CCc2ccc(-c3cnc4[nH]nc(-c5ccc(S(=O)(=O)C6CC6)cc5)c4c3)cc2CC1 (stereo partly drawn) [Example 39, 3-(4-(Cyclopropylsulfonyl)phenyl)-5-(7-((R)-2-methylpyrrolidin-1-yl)-6,7,8,9-tetrahydro-5H-benzo[7]annulen-2-yl)-1H-pyrazolo[3,4-b]pyridine] | 100 to 1000 nM
3 | O=S(=O)(c1ccc(-c2n[nH]c3ncc(-c4ccc5c(c4)CC[C@@H](N4CCCC4)CC5)cc23)cc1)C1CC1 [Example 40, (S)-3-(4-(Cyclopropylsulfonyl)phenyl)-5-(7-(pyrrolidin-1-yl)-6,7,8,9-tetrahydro-5H-benzo[7]annulen-2-yl)-1H-pyrazolo[3,4-b]pyridine] | < 100 nM
4 | CCS(=O)(=O)c1ccc(-c2n[nH]c3ncc(-c4ccc5c(c4)CC[C@@H](N4CCCC4)CC5)cc23)cc1 [Example 41, (S)-3-(4-(Ethylsulfonyl)phenyl)-5-(7-(pyrrolidin-1-yl)-6,7,8,9-tetrahydro-5H-benzo[7]annulen-2-yl)-1H-pyrazolo[3,4-b]pyridine] | < 100 nM
5 | CC(C)S(=O)(=O)c1ccc(-c2n[nH]c3ncc(-c4ccc5c(c4)CC[C@@H](N4CCCC4)CC5)cc23)cc1 [Example 42, (S)-3-(4-(Isopropylsulfonyl)phenyl)-5-(7-(pyrrolidin-1-yl)-6,7,8,9-tetrahydro-5H-benzo[7]annulen-2-yl)-1H-pyrazolo[3,4-b]pyridine] | < 100 nM

The next lines start with the values.

Row | IC50 | Structure (SMILES)
6 | < 100 nM | CS(=O)(=O)c1ccc(-c2n[nH]c3ncc(-c4ccc5c(c4)CCN(C4CCCC4)CC5)cc23)cc1Cl [Example 31, 7-(3-(3-Chloro-4-(methylsulfonyl)phenyl)-1H-pyrazolo[3,4-b]pyridin-5-yl)-3-cyclopentyl-2,3,4,5-tetrahydro-1H-benzo[d]azepine]
7 | 100 to 1000 nM | CS(=O)(=O)c1ccc(-c2n[nH]c3ncc(-c4ccc5c(c4)CCN(C4CCCC4)CC5)cc23)cc1F [Example 32, 3-Cyclopentyl-7-(3-(3-fluoro-4-(methylsulfonyl)phenyl)-1H-pyrazolo[3,4-b]pyridin-5-yl)-2,3,4,5-tetrahydro-1H-benzo[d]azepine]
8 | 100 to 1000 nM | COCCN1CCc2ccc(-c3cnc4[nH]nc(-c5ccc(C(C)(C)O)c(Cl)c5)c4c3)cc2CC1 [Example 34, 2-(2-Chloro-4-(5-(3-(2-methoxyethyl)-2,3,4,5-tetrahydro-1H-benzo[d]azepin-7-yl)-1H-pyrazolo[3,4-b]pyridin-3-yl)phenyl)propan-2-ol]
9 | 100 to 1000 nM | C[C@@H]1CCCN1C1CCc2ccc(-c3cnc4[nH]nc(-c5ccc(C(C)(C)O)c(Cl)c5)c4c3)cc2CC1 (stereo partly drawn) [Example 35, 2-(2-Chloro-4-(5-(7-((R)-2-methylpyrrolidin-1-yl)-6,7,8,9-tetrahydro-5H-benzo[7]annulen-2-yl)-1H-pyrazolo[3,4-b]pyridin-3-yl)phenyl)propan-2-ol]
10 | 100 to 1000 nM | C[C@H]1CCCN1C1CCc2ccc(-c3cnc4[nH]nc(-c5ccc(C(C)(C)O)c(Cl)c5)c4c3)cc2CC1 (stereo partly drawn) [Example 37, 2-(2-Chloro-4-(5-(7-((S)-2-methylpyrrolidin-1-yl)-6,7,8,9-tetrahydro-5H-benzo[7]annulen-2-yl)-1H-pyrazolo[3,4-b]pyridin-3-yl)phenyl)propan-2-ol]
11 | < 100 nM | C[C@@H]1CCCN1C1CCc2ccc(-c3cnc4[nH]nc(-c5ccc(S(C)(=O)=O)cc5)c4c3)cc2CC1 (stereo partly drawn) [Example 38, 5-(7-((R)-2-Methylpyrrolidin-1-yl)-6,7,8,9-tetrahydro-5H-benzo[7]annulen-2-yl)-3-(4-(methylsulfonyl)phenyl)-1H-pyrazolo[3,4-b]pyridine]
